The subject of one assay is cold-induced allodynia. Kind of assay: Bennett model, neuropathic pain in rats (cold-induced allodynia). Particulars: rat; for AUD: over 1 hour, *** p≦0.001. It counts as in vivo. The protocol:
The effectiveness in neuropathic pain was investigated using the Bennett model (Chronic Constriction Injury: Bennett and Xie, 1988, Pain 33: 87-107).
The right sciatic nerve of Sprague-Dawley rats weighing 140-160 g anaesthetised with nembutal was loosely ligatured in four places. The animals develop an hypersensitivity in the paw inervated by the damaged nerve, which after a one-week healing phase is quantified over about four weeks by means of a 4° C. cold metal plate (cold-induced allodynia). The animals are observed for a period of 2 minutes on this plate and the number of contractive reactions of the damaged paw is measured. The effect of the substance is determined at four times over a period of 1 hour (15, 30, 45 and 60 minutes after application) with reference to the baseline value before application of the substance and the resulting area under the curve (AUD) as well as the inhibition of the cold-induced allodynia at the individual measuring points is expressed as a percentage inhibition with respect to the vehicle control (AUD) and to the starting value (individual measurement points). The group size is n=10, and the significance of an anti-allodynic action is determined on the basis of the AUD values over a paired Test (* 0.05≧p>0.01; ** 0.01≧p>0.001; *** p≦0.001; Armitage and Berry, 1987, Stat. Methods in Medical Research, London: Blackwell Scientific Publications).

The subject of assay [1] is formalin-induced nociception. Description: Formalin test on mice (second phase). It counts as in vivo. Particulars: read-out: Mouse Formalin Test ED50. The method, then: The investigations to determine the antinociceptive action of the compounds according to the invention were carried out by the formalin test on male albino mice (NMRI, 25-35 g, Iffa Credo, Belgium).
In the formalin test the first (early) phase (0-15 minutes after the formalin injection) and the second (late) phase (15-60 minutes after the formalin injection) differ (D. Dubuisson et al., Pain, Vol. 4, pp. 161-174 (1977)). The early phase, being a direct reaction to the formalin injection, constitutes a model for acute pain, whereas the late phase is regarded as a model for persistent (chronic or inflammatory) pain (T. J. Coderre et al., Pain, Vol. 52, pp. 259-285 (1993)).
The compounds according to the invention were investigated in the second phase of the formalin test in order to obtain information on the effects of substances in chronic/inflammatory pain.
By means of a single subcutaneous formalin injection (20 μl, 1% aqueous solution) into the dorsal side of the right-hand rear paw, a nociceptive reaction was induced in unconstrained experimental animals, manifested in a noticeable licking and biting of the affected paw. The nociceptive behavior during the investigation period in the second (late) phase of the formalin test was continuously monitored by observing the animals. The pain reaction was quantified by totalling the time in seconds during which the animals continued to lick and bite the affected paw during the investigation period. After injecting substances that have an antinociceptive effect in the formalin test, the aforedescribed behavior pattern of the animals is reduced or possibly even eliminated. Corresponding to the substance tests, in which the animals had been injected with the test substance before formalin, the control animals were injected with a vehicle, i.e. solvent (e.g. 0.9% NaCl solution) before the formalin injection. The behavior of the animals after administration of the substance (n=10 per substance dose) was compared with a control group (n=10).
Based on the quantification of the pain reaction, the effect of the substance in the formalin test was determined as the change in the control in percentage terms. The ED50 calculations were carried out by means of regression analysis. The application time before the formalin injection (intraperitoneally: 15 minutes, intravenously: 5 minutes) was chosen depending on the type of application of the compounds according to the invention.

In a further assay the target is gabapentin binding site. Description: Gabapentin binding assay (displacement of gabapentin from its binding site). Particulars: displacement of gabapentin, read-out: Affinity (IC50). The protocol: Gabapentin is used in the binding assay in order to determine the binding and affinities of the selected compounds. The affinity of the compounds according to the invention is measured via the displacement of gabapentin from its binding site.

Assay [2] deals with phenylquinone-induced writhing reactions. Kind of assay: Phenylquinone-induced writhing test in mice. It counts as in vivo. The conditions noted are these: iv, read-out: Writhing Mouse i.v. ED50. The protocol:
The antinociceptive effectiveness of the compounds according to the invention was investigated in mice using the phenylquinone-induced writhing test as modified by I. C. Hendershot and J. Forsaith, J. Pharmacol. Exp. Ther. 125, 237-240 (1959)). Male NMRI mice weighing 25-30 g were used for this purpose. Groups of 10 animals per substance dose were given intraperitoneally 10 minutes after intravenous administration of a compound according to the invention, 0.3 ml/mouse of a 0.02% aqueous solution of phenylquinone (phenylbenzoquinone, from Sigma, Deisenhofen; solution prepared by addition of 5% of ethanol and storage in a water bath at 45° C.). The animals were placed individually in observation cages. The number of pain-induced stretching movements (so-called writhing reactions=contortion of the body accompanied by stretching of the rear extremities) 5-20 minutes after administration of the phenylquinone were counted using a push-button counter. Animals that had received physiological saline solution i.v. and phenylquinone […]. served as controls.
All substances were tested in the standard dose of 10 mg/kg.
For orientation: In writhing tests, fewer writhes than in controls are read as antinociception.

Assay [3] relates to mechanical hyperalgesia after paw incision. Kind of assay: Mechanical hyperalgesia after paw incision in rats (paw incision model). It counts as in vivo. The conditions noted are these: rat, 464 mg/kg i.p. The protocol:
In this model the wound pain in the tissue surrounding an incision in the plantar side of a rear rat paw is investigated as a model of post-operative pain (Brennan, T. J., Vandermeulen, E. P., Gebhart, G. F., Pain (1996) 493-501). For this purpose the retraction latency after punctiform mechanical stimulation with an electronic von Frey filament is determined. After the paw incision a mechanical hyperalgesia develops, which remains stable over several days.
Male Sprague Dawley rats (bodyweight 200-300 g) are used. Under halothane anaesthesia a 1 cm-long incision is made starting 0.5 cm from the proximal end of the heel, through the skin, fascia and plantaris muscle, and closed with two stitches.
The retraction threshold of the paw expressed in grams after punctiform mechanical stimulation is determined using an electronic von Frey filament (Digital Transducer Indicator Model 1601C, IITC Inc.). For this purpose the retraction threshold per measurement point is measured five times at intervals of 30 seconds and the individual median value is determined, on the basis of which the mean value of the animal cohort is in turn calculated. […]
In order to investigate primary hyperalgesia, the retraction threshold is determined on the ipsilateral paw in the immediate vicinity of the incision as well as in the same position on the contralateral paw. […]

Setting [4] is: mouse, i.v., 10 minutes before phenylquinone.

Where two headings read alike, the source gives them in different places.

Take `CCCCCC(C)(S)C(N)C(=O)O.Cl` (racemic) [Compound 4, rac-2-amino-3-mercapto-3-methyloctanoic acid hydrochloride]: the “Change Compared to Control (%)” value was found to be 32.5% in the assay with cold-induced allodynia (46.4 mg/kg i.p.) and 66.9% with cold-induced allodynia (100 mg/kg i.p.). Besides, the AUD in the assay with cold-induced allodynia (46.4 mg/kg i.p.) is 1893.1 ± 284.6***; in the assay with cold-induced allodynia (100 mg/kg i.p.), 3603.1 ± 228.1***. The ED50 came out at 67 mg/kg in assay [1] (iv, mouse, i.v., second phase) and 12 mg/kg in assay [2] (setting [4]). Besides, the half-inhibitory concentration (IC50) at gabapentin binding site (hydrochloride) worked out at 186 nM.
As to `NCC1(CC(=O)O)CCCCC1` [Gabapentin, gabapentin, reference compound], the “Change Compared to Control (%)” value in the assay on cold-induced allodynia (100 mg/kg i.p.) came out at 34.5%; in the assay on cold-induced allodynia (464 mg/kg i.p.), 47.3%. The AUD is 1940.3 ± 139.7*** in the assay on cold-induced allodynia (100 mg/kg i.p.) and 2577.8 ± 147.4*** with cold-induced allodynia (464 mg/kg i.p.). In addition, the ED50 in assay [1] (Mus musculus) is 79 mg/kg; in assay [2] (Mus musculus), 38 mg/kg.
Turning to `Cl.NC(C(=O)O)C1(S)CCCC1` (racemic) [Compound 8, rac-amino-(1-mercaptocyclopentyl)acetic acid hydrochloride], the ED50 in assay [1] (iv, mouse, i.v., second phase) came out at 79 mg/kg; in assay [2] (setting [4]), 70 mg/kg. Moreover, the IC50 on gabapentin binding site stood at 151 nM.
As for `CCCCCCCC(C)(S)C(N)C(=O)O.Cl` (racemic) [Compound 6, rac-2-amino-3-mercapto-3-methyldecanoic acid hydrochloride], the “% MPE (Maximal Possible Effect)” value in assay [3] is given as 27% MPE (464 mg/kg) i.p. Further, the ED50 in assay [1] (iv, mouse, i.v., second phase) stood at 66 mg/kg; in assay [2] (setting [4]), 35 mg/kg. Also, on gabapentin binding site (hydrochloride), the IC50 is 199 nM.

What is called ED50 is the dose that gives a 50% effect, or the effect in half of the subjects. As usually defined, the IC50 is the concentration at which inhibition is half-maximal.

The record behind these values is patent publication US6846843B2, “β-thioamino acids” (Gruenenthal GmbH, priority 2000, dated 2005).
